From US9505740B2, “Cyclic amine derivative and pharmaceutical use thereof” (Toray Industries, Inc., priority 2013, dated 2016)
Counter-ions that a name gives are not always drawn.

How the values were obtained:
[1] = tested on: mouse partial sciatic nerve ligation model; assay: Mouse partial sciatic nerve ligation model (Seltzer model), von Frey test; type: in vivo; details: Day 7, vs physiological saline group
[2] = tested on: mouse partial sciatic nerve ligation model; assay: as above; type: in vivo; details: oral administration; Example 8 10 mg/kg (Day 7), Example 38 0.1 to 10 mg/kg (Day 8), pregabalin 10 mg/kg; 1, 2 and 3 hours after administration; vs partial sciatic nerve ligation+distilled water, p<0.05
Text: Using a partial sciatic nerve ligation model (Seltzer model) in mice by which neuropathic pain can be evaluated, the analgesic action of a cyclic amine derivative (I) or a prodrug thereof or a pharmacologically acceptable salt thereof was investigated.
As the cyclic amine derivative (I) or a pharmacologically acceptable salt thereof, the compounds of Example 2, 4, 6, 8, 10, 12, 13, 15, 18, 22, 25, 27, 29, 31, 33, 66, 68 or 70 was used for evaluation. As the prodrug of the cyclic amine derivative (I) or a pharmacologically acceptable salt thereof, the compound of Example 38 was used for evaluation. The compound of Example 38 is a hydrochloride of a prodrug obtained by esterifying the carboxyl group of the compound of Example 39 with an ethyl group.
The mouse partial sciatic nerve ligation model was prepared in accordance with the method of Seltzer et al. (Malmberg et al., Pain, vol. 76, p. 215-222, 1998). • Slc: ICR mice (5 weeks old, male; from Japan SLC, Inc.) or Crl: CD1 (ICR) mice (5 weeks old, male; from CHARLES RIVER LABORATORIES JAPAN, INC.) were anesthetized with sodium pentobarbital (70 mg/kg, intraperitoneal administration). The sciatic nerve at the femoral region of the right hind paw of each mouse was exposed and triply ligated tightly with silk suture of 8-0 (from NATSUME […]., LTD.) under a stereomicroscope so that only half thickness of the nerve was trapped in the ligature. A group of mice thus treated was designated as a partial sciatic nerve ligation group. A group of mice whose sciatic nerve was just exposed and not ligated was designated as a sham surgery group.
Evaluation of neuropathic pain (hereinafter referred to as von Frey test) was performed as follows. Mice were conditioned for at least two hours in an acrylic cage for measurement (from NATSUME […]. LTD.) placed on a wire net. […]

[3] = tested on: fibromyalgia syndrome model rats; assay: Fibromyalgia syndrome model in rats (acidic saline), allodynia by von Frey filament; type: in vivo, rat; details: vs acidic saline-vehicle group
Text: Using a fibromyalgia syndrome model in rats by which fibromyalgia syndrome can be evaluated, the analgesic action of a cyclic amine derivative (I) or a prodrug thereof or a pharmacologically acceptable salt thereof was investigated.
As the cyclic amine derivative (I) or a pharmacologically acceptable salt thereof, the compound of Example 13 was used for evaluation. As the prodrug of a cyclic amine derivative (I) or a pharmacologically acceptable salt thereof, the compound of Example 38 was used for evaluation. The compound of Example 38 is a hydrochloride of a prodrug obtained by esterifying the carboxyl group of the compound of Example 39 with an ethyl group.
To prepare a fibromyalgia syndrome model rat (Sluka et al., Journal of Pharmacology and Experimental Therapeutics, vol. 302, p. 1146-50, 2002; Nagakura et al., Pain, vol. 146, p. 26-33, 2009; Sluka et al., Pain, vol. 146, p. 3-4, 2009), which is generally employed widely in basic research for fibromyalgia syndrome, acidic saline (100 μL) adjusted to pH4.0 was intramuscularly injected to the gastrocnemius muscle of the right hind paw of Crl: CD(SD) rat (6 to 7 weeks old, male; from CHARLES RIVER LABORATORIES JAPAN, INC.) under continuous inhalation anesthesia with isoflurane, twice (once in each day of Day 1 and Day 6, wherein Day 1 was the date on which the acidic saline was initially administrated). The rats thus prepared were raised in a breeding room controlled at an indoor temperature of 21 to 25° C. and an indoor humidity of 40 to 70% under the conditions of voluntary intake of food and water. In the same manner, rats to which physiological saline in place of acidic saline was intramuscularly injected were raised. The rats thus raised and not afflicted with fibromyalgia syndrome (“physiological saline-vehicle” group in FIGS. 23 and 24) were also used in the experiment.
Day 7 after the initial administration of acidic saline, allodynia in each rat was measured. […] Note that, measurement of allodynia was performed by use of a von Frey filament (from North Coast Medical) in accordance with the method described in a known literature (Chaplan et al., Journal of Neuroscience Methods, vol. 53, p. 55-63, 1994). […]
The compound of Example 13 (3 and 10 mg/kg) was dissolved in physiological saline and then administered (intravenous administration) to fibromyalgia syndrome model rats through the tail vein (“acidic saline—the compound of Example 13” in FIG. 23). […] In thirty minutes after the intravenous administration, allodynia in individual rats was measured to evaluate an analgesic action. […]

[4] = intravenous administration (tail vein), Examples 2, 4: 0.1 to 10 mg/kg, 13: 0.01 to 1 mg/kg, 18, 22: 0.1 and 1 mg/kg, 25, 27, 29, 31, 33, 66, 68, 70: 0.1 mg/kg, pregabalin 1 or 3 mg/kg
[5] = intravenous administration, Example 13 3 and 10 mg/kg, pregabalin 10 mg/kg, 30 minutes after administration
[6] = oral administration, 10 mg/kg, one hour and three hours after administration, p<0.05

Structure (SMILES) | analgesic action, total score in the von Frey test [1, 4] | analgesic action, total score in the von Frey test [2] | allodynia, 50% response threshold (mean value of the right hind paw and the left hind paw) [3, 5] | allodynia, 50% response threshold (mean value of the right hind paw and the left hind paw) [3, 6] | analgesic action, total score in the von Frey test ([1]; intraventricular administration, 10 μg/site, 15, 30 and 60 minutes after administration, p<0.05)
CC(C)C[C@H](CN)CC(=O)O [pregabalin, reference compound] | statistically significant analgesic action | statistically significant analgesic action | statistically significantly improved | statistically significantly improved | –
CN(C)C1CCN(C(=O)CCc2nccn2CC(=O)O)CC1 [Example 13, 2-(2-(3-(4-(dimethylamino)piperidin-1-yl)-3-oxopropyl)-1H-imidazol-1-yl)acetic acid hydrochloride] | statistically significant analgesic action | – | statistically significantly improved | – | statistically significant analgesic action
Cn1ccnc1CCC(=O)N1CCC(N)CC1 [Example 8, 1-(4-aminopiperidin-1-yl)-3-(1-methyl-1H-imidazol-2-yl)propan-1-one hydrochloride] | – | statistically significant analgesic action | – | – | –
CCOC(=O)Cn1ccnc1CCC(=O)N1CCC(N(C)C)CC1 [Example 38, ethyl 2-(2-(3-(4-(dimethylamino)piperidin-1-yl)-3-oxopropyl)-1H-imidazol-1-yl)acetate hydrochloride] | – | statistically significant analgesic action | – | statistically significantly improved | –
